These are literature values, as cited in patent US20060078583A1, “Device for delivering an anti-microbial composition” (priority 2004, published 2006).

For series [1], the system named is rhinoviral infections (colds). The settings on record: subjects who used iodine products.
For the next series, the system named is rhinovirus. The settings on record: on skin.

`II` [iodine]: the “number of colds versus placebo users” value in series [1] was “significantly fewer colds than placebo users”. Besides, in the series with rhinovirus, the residual anti-rhinoviral activity entry is “provides residual anti-rhinoviral activity on skin”.
